In US12679878B2, “CRF2 receptor agonists and their use in therapy” (SANOFI, priority 2020, dated 2026):
Starred links: 1 amine or outer side, 2 acyl side, 3 side chain; linkers in the order of their positions; H or OH if unused. Residues, ends and D or L forms follow the SMILES beside them. Groups on a side chain read outwards from the residue. *: point of attachment. γGlu = O=C(O)[C@H](CCC(=O)[*:2])N[*:1]; Palmitoyl = CCCCCCCCCCCCCCCC(=O)*

Columns and labels:
[1] = target: T1, human CRF2α receptor (Homo sapiens, UniProt Q13324); experiment: cAMP agonism at human CRF2 α receptor in TeloHEAC cells (Example 7); format: cell-based; conditions: cAMP HTRF, TeloHEAC cells stably expressing human CRF2 α, 0% HSA; read-out: EC50 [nM], 0% HSA
T1 construct: expressed in transfected cells; host or cells: TeloHEAC
T1 sequence (Q13324 1-411): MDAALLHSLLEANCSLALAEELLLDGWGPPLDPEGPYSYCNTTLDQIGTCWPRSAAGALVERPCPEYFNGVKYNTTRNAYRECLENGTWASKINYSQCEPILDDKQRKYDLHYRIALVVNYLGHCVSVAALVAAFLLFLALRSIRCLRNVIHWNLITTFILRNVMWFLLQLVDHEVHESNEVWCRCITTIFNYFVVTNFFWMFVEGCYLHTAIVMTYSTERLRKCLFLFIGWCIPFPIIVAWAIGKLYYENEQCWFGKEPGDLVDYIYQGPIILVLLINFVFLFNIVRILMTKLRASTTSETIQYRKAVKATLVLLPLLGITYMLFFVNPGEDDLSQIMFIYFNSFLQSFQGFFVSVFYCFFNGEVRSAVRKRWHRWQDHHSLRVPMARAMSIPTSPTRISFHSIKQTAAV
Outline: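 Percent activation was referenced to 1000 nM UCN2 (100%), and EC50 values taken as concentrations giving half of maximal response. The read-out was a homogeneous time-resolved fluorescence cAMP kit, fluorescence ratio 665/620 nm. Thawed cells (2000/well) saw compound for 30 min at RT in buffer with 2 mM IBMX and 0%/0.1% HSA.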

[2] = target: T2, CRF1R receptor (Homo sapiens, UniProt P34998); experiment: cAMP activity at anti-target CRF1R, CRF1R-overexpression CHO cell line (Example 9); format: cell-based; conditions: CRF1R-overexpression CHO cell line; for EC50: 0% HSA; for Emax: read-out: Emax (%)
T2 construct: host or cells: CHO-K1 clone 2
T2 sequence (P34998 24-415): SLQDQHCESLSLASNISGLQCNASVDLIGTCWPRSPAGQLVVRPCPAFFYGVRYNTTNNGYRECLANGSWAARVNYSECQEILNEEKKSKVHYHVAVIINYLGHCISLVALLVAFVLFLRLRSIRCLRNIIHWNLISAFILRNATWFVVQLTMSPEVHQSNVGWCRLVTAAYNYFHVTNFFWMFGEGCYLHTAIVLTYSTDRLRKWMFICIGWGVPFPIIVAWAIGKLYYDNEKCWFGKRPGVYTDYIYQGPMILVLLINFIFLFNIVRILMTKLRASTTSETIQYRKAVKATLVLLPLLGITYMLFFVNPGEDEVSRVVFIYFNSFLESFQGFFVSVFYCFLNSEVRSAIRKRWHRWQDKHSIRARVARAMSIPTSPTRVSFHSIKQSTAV
Protocol: Cells were grown in a T175 culture flask placed at 37° C. to near confluence in medium (DMEM/10% FBS) and collected in 2 ml vials in cell culture medium containing 10% DMSO in a concentration of 10-50 million cells/ml. Each vial contained 1.8 ml cells. The vials were slowly frozen to −80° C. in isopropanol and then transferred in liquid nitrogen for storage. Prior to use, frozen cells were thawed quickly at 37° C. and washed (5 min at 900 rpm) with 20 ml cell buffer (1×HBSS; 20 mM HEPES; 0% or 0.1% HSA). Cells were resuspended in assay buffer (cell buffer plus 2 mM IBMX) and adjusted to a cell density of 1 million cells/ml. For measurement, 5 μl cells (final […]) and 5 μL of test compound were added to a 384-well plate, followed by incubation for 30 minutes at room temperature.
The CAMP content of cells was determined using a kit from Cisbio Corp. (cat. no. 62AM4PEC) based on HTRF (Homogenous Time Resolved Fluorescence). […] The percent activity value (E %) was calculated by setting 1000 nM of urocortin 2 (UCN2) as 100%.
A CRF1R-overexpression CHO cell line was used in this study.

| EC50 [1] [nM] | EC50 [2] [nM] | Emax [2] [%] | SMILES |
| --- | --- | --- | --- |
| 0.04 | > 1000 | 37.4 | CCCCCCCCCCCCCCCC(=O)N[C@@H](CCC(=O)NCCCC[C@H](NC(=O)[C@H](CC(C)C)NC(=O)CNC(=O)[C@@H](NC(=O)[C@@H]1CCCN1C(=O)[C@@H](NC(=O)[C@H](CC(=O)O)NC(=O)[C@H](CC(C)C)NC(=O)[C@H](CO)NC(=O)[C@H](CC(C)C)NC(=O)[C@@H](NC(=O)[C@@H](N)[C@@H](C)CC)C(C)C)C(C)C)[C@@H](C)CC)C(=O)N[C@@H](CCC(N)=O)C(=O)N[C@@H](CCCCN)C(=O)N[C@@H](CC(C)C)C(=O)N[C@@H](CC(C)C)C(=O)N[C@@H](CCCCN)C(=O)N[C@@H](CCC(N)=O)C(=O)N[C@@H](CCC(N)=O)C(=O)N[C@@H](CCCNC(=N)N)C(=O)N[C@@H](CCC(N)=O)C(=O)N[C@@H](CCCNC(=N)N)C(=O)N[C@@H](CCCCN)C(=O)N[C@@H](CCC(=O)O)C(=O)N[C@@H](CCCNC(=N)N)C(=O)N[C@@H](CCC(N)=O)C(=O)N[C@@H](CCC(N)=O)C(=O)N[C@@H](C)C(=O)N[C@@H](CCC(=O)O)C(=O)N[C@H](C(=O)N[C@@H](CC(N)=O)C(=O)N[C@@H](C)C(=O)N[C@@H](CCCNC(=N)N)C(=O)N[C@H](C(=O)N[C@@H](CC(C)C)C(=O)N[C@@H](C)C(=O)N[C@@H](CCCNC(=N)N)C(=O)N[C@H](C(N)=O)C(C)C)[C@@H](C)CC)[C@@H](C)O)C(=O)O [compound 5] (H-IVLSLDVPIGLK([γGlu-Palmitoyl])QKLLKQQRQRKERQQAETNARILARV-NH2; N-terminus assumed) |
|  | > 1000 | 14.9 | CCCCCCCCCCCCCCCC(=O)N[C@@H](CCC(=O)NCCCC[C@H](NC(=O)[C@@H](NC(=O)[C@H](CCCCN)NC(=O)[C@@H](NC(=O)[C@@H]1CCCN1C(=O)[C@@H](NC(=O)[C@H](CC(=O)O)NC(=O)[C@H](CC(C)C)NC(=O)[C@H](CO)NC(=O)[C@H](CC(C)C)NC(=O)[C@@H](NC(=O)[C@@H](N)Cc1ccccc1)[C@@H](C)O)C(C)C)[C@@H](C)O)[C@@H](C)CC)C(=O)N[C@@H](CCC(N)=O)C(=O)N[C@@H](CCCCN)C(=O)N[C@@H](CC(C)C)C(=O)N[C@@H](CC(C)C)C(=O)N[C@@H](CCCCN)C(=O)N[C@@H](CCC(N)=O)C(=O)N[C@@H](CCC(=O)O)C(=O)N[C@@H](CCCCN)C(=O)N[C@@H](CCC(N)=O)C(=O)N[C@@H](CCCCN)C(=O)N[C@@H](CCCCN)C(=O)N[C@@H](CCC(N)=O)C(=O)N[C@@H](CCCNC(=N)N)C(=O)N[C@@H](CCC(N)=O)C(=O)N[C@@H](CCCCN)C(=O)N[C@@H](C)C(=O)N[C@@H](CCCCN)C(=O)N[C@H](C(=O)N[C@@H](C)C(=O)N[C@@H](CCCCN)C(=O)N[C@@H](CCC(N)=O)C(=O)N[C@H](C(=O)N[C@@H](CC(C)C)C(=O)N[C@@H](CCC(=O)O)C(=O)N[C@@H](CCC(N)=O)C(=O)N[C@H](C(N)=O)C(C)C)[C@@H](C)CC)[C@@H](C)O)C(=O)O [compound 9] (H-FTLSLDVPTKIK([γGlu-Palmitoyl])QKLLKQEKQKKQRQKAKTAKQILEQV-NH2) |
